Test results: patent US20250326714A1, “PURE FORMS OF CRYSTALLINE ATICAPRANT” (Janssen Pharmaceuticals, Inc., priority 2022, published 2025)

Columns and labels:
[1] = Solid-state characterization of Form III (GVS, TGA); type: physicochemical
[2] = ICH M7 class of impurity (DNA reactive / mutagenic impurities)
[3] = Body weight by treatment group, Example 5 study; type: in vivo, human
Description: Treatment with the chemically and/or enantiomerically pure aticaprant described herein, e.g., chemically and/or enantiomerically pure crystalline Form III of aticaprant, or compositions containing the same as described herein has several advantages over the treatments in the art. […] As used herein, the term “weight gain” refers to an increase in the weight of patient, relative to the weight of the patient before taking the chemically and/or enantiomerically pure aticaprant described herein, e.g., chemically and/or enantiomerically pure crystalline Form III of aticaprant, or compositions containing the same or the weight of the patient that is assessed at the time of the initial administration of the chemically and/or enantiomerically pure aticaprant described herein, e.g., chemically and/or enantiomerically pure crystalline Form III of aticaprant, or compositions containing the same. In certain embodiments, the patient may actually see a decrease in overall weight, relative to the weight of the patient before taking the chemically and/or enantiomerically pure aticaprant described herein, e.g., chemically and/or enantiomerically pure crystalline Form III of aticaprant, or compositions containing the same.
At the lead-in baseline timepoint, the mean weight for subjects in the placebo group was 76.17 kg compared to 78.66 in the aticaprant group. After 6 weeks in the double-blind treatment phase, the mean weight in the placebo group was 75.75 kg compared to 78.57 kg in the aticaprant group. […] This is unexpected because other adjunctive treatments for MDD result in a mean weight increase. See, Thase M, et al. J Clin Psych. 2015: 76 (9), 1224-1231; Thase, J Clin Psych. 2015, 76 (9): 1232-1240; El Khalili, Int J Neuropsychopharmacol. 2010, 13, 917-932; Marcus, J. Clin. Psychopharmacol. […] Nashville, Tenn, ACNP, 2008; Earley, American College of Neuropsychopharmacology, 2007, Annual Meeting Abstracts (Boca Raton, Fla, Dec. 9-13, 2007). Nashville, TN, ACNP, 2007). See, Table 48.

In the case of Cc1cc(C)cc([C@@H]2CCCN2Cc2ccc(Oc3ccc(C(N)=O)cc3F)cc2)c1 [Form III], the TGA degradation onset [1] is reported as “Degradation onset ~250 °C” and the “XRPD after GVS” value [1] is reported as “XRPD unchanged after GVS”.
In the case of Cc1cc(C)cc([C@@H]2CCCN2Cc2ccc(Oc3ccc(CN4CCC[C@H]4c4cc(C)cc(C)c4)cc3)cc2)c1 [Impurity 1], the “Impurity Class (ICH M7 Guideline)” value [2] is reported as “Class 5”.
In the case of Cc1cc(C)cc(C2CCCN2Cc2ccc(Oc3ccc(C(N)=O)cc3F)cc2)c1 (stereo not drawn) [aticaprant, 3-fluoro-4-4-2-(3,5-dimethylphenyl) pyrrolidin-1-yl-methylphenoxybenzamide], the “weight over the 6-week double blind treatment period” value ([3]; both groups) is reported as “remained relatively stable”, the “Mean weight, Absolute Change (Withdrawal − Lead-in)” value ([3]; n = 85) is reported as -0.09 kg and the “Mean weight, Lead-in Baseline, mean (SE)” value ([3]; n = 85) is reported as 78.66 (1.65) kg. The “Mean weight, Relative % Change” value ([3]; n = 85) was −0.11%, the “Mean weight, Screening, mean (SE)” value ([3]; n = 85) was 78.42 (1.65) kg and the “Mean weight, Withdrawal Baseline, mean (SE)” value ([3]; n = 85, after 6 weeks double-blind treatment) was 78.57 (1.71) kg.
